In US11291684B2, “Treatment of glaucoma” (TX MEDIC AB, priority 2017, dated 2022):

Test system: retinal ganglion cell (RGC)
Assay: Retinal ganglion cell counts by immunohistochemistry in TGF-β-induced glaucoma model
Type: in vivo, Sprague Dawley rats
Details: rat TGF-β glaucoma model; day 28; vs saline
Description: Glaucoma was induced in adult male Sprague Dawley rats by repeat twice weekly intracameral (IC) injections of transforming growth factor-β (TGF-β) to increase intraocular pressure (IOP). Sustained increases in IOP (after two weeks) leads to death of retinal ganglion cells (30-40%). Dextran sulfate (Tikomed AB, Sweden, WO 2016/076780) was administered at 15 mg/kg by daily subcutaneous injection from […] to assess RGC protection compared to controls.
Measured End-Points • IOP twice weekly throughout study from day 0 to day 28; • Immunohistochemistry for counting RGC that are immunoreactive for brain-specific homeobox/POU domain protein 3A (Brn3a) at day 28 (RGC survival); • Immunohistochemistry for laminin and fibronectin to evaluate scarring in the trabecular meshwork at day 28 in Groups 1 and 2; • Anterior segment and OCT imaging at day 28 to examine the angle and the thickness of the retinal nerve fiber layer comprising RGC axons; and • Body weight at day 28. […]
For quantification of RGC in retinal sections, RPBMS^+/DAPI^+ RGC were counted in 15 μm thick parasagittal sections of retina from a 250 μm linear portion from the ganglion cell layer at either side of the optic nerve. Four retinal sections from each eye in the control and treatment groups were quantified. […]

dextran sulfate
decline in RGC numbers present in the retina: significantly prevented
